Numbers after ± are expanded uncertainties.
Experiment: mn = molality of the nth substance listed, in mol/kg
Conditions: 101 kPa, Liquid

[Br-].[K+] [potassium bromide] + O
Conditions | mass density [kg/m3] | speed of sound [m/s] | viscosity [mPa·s]
293.15 K, m1 = 0.2 | 1015.19 ± 0.3 | 1487 ± 1.6 | 0.985 ± 0.025
293.15 K, m1 = 0.3 | 1023.34 ± 0.32 | 1488.9 ± 1.6 | 0.975 ± 0.025
293.15 K, m1 = 0.4 | 1031.61 ± 0.33 | 1490.9 ± 1.6 | 0.97 ± 0.024
293.15 K, m1 = 0.5 | 1039.7 ± 0.35 | 1492.8 ± 1.6 | 0.97 ± 0.024
293.15 K, m1 = 0.6 | 1047.69 ± 0.36 | 1493.4 ± 1.6 | 0.95 ± 0.024
293.15 K, m1 = 0.7 | 1055.7 ± 0.38 | 1497.1 ± 1.6 | 0.936 ± 0.024
298.15 K, m1 = 0.2 | 1013.8 ± 0.3 | 1500.6 ± 1.6 | 0.873 ± 0.022
298.15 K, m1 = 0.3 | 1022.08 ± 0.32 | 1503.2 ± 1.6 | 0.863 ± 0.022
298.15 K, m1 = 0.4 | 1030.17 ± 0.33 | 1504 ± 1.6 | 0.86 ± 0.022
298.15 K, m1 = 0.5 | 1038.34 ± 0.34 | 1506.5 ± 1.6 | 0.857 ± 0.022
298.15 K, m1 = 0.6 | 1046.11 ± 0.36 | 1506 ± 1.6 | 0.846 ± 0.022
298.15 K, m1 = 0.7 | 1054.22 ± 0.37 | 1509.1 ± 1.6 | 0.832 ± 0.021
303.15 K, m1 = 0.2 | 1012.3 ± 0.3 | 1512.5 ± 1.6 | 0.782 ± 0.02
303.15 K, m1 = 0.3 | 1020.51 ± 0.31 | 1514.2 ± 1.6 | 0.772 ± 0.02
303.15 K, m1 = 0.4 | 1028.56 ± 0.33 | 1516 ± 1.6 | 0.769 ± 0.02
303.15 K, m1 = 0.5 | 1036.79 ± 0.34 | 1517.2 ± 1.6 | 0.765 ± 0.02
303.15 K, m1 = 0.6 | 1044.6 ± 0.35 | 1517.9 ± 1.6 | 0.76 ± 0.02
303.15 K, m1 = 0.7 | 1052.52 ± 0.37 | 1520.4 ± 1.6 | 0.74 ± 0.019
308.15 K, m1 = 0.2 | 1010.63 ± 0.3 | 1523.4 ± 1.6 | 0.698 ± 0.018
308.15 K, m1 = 0.3 | 1018.9 ± 0.31 | 1524.6 ± 1.6 | 0.688 ± 0.018
308.15 K, m1 = 0.4 | 1026.73 ± 0.32 | 1526.4 ± 1.6 | 0.682 ± 0.018
308.15 K, m1 = 0.5 | 1035 ± 0.34 | 1527.7 ± 1.6 | 0.678 ± 0.018
308.15 K, m1 = 0.6 | 1042.99 ± 0.35 | 1527.8 ± 1.6 | 0.674 ± 0.018
308.15 K, m1 = 0.7 | 1050.61 ± 0.36 | 1529.6 ± 1.6 | 0.664 ± 0.018
313.15 K, m1 = 0.2 | 1008.74 ± 0.29 | 1532.3 ± 1.6 | 0.622 ± 0.017
313.15 K, m1 = 0.3 | 1016.99 ± 0.31 | 1532.8 ± 1.6 | 0.612 ± 0.017
313.15 K, m1 = 0.4 | 1024.78 ± 0.32 | 1534.7 ± 1.6 | 0.608 ± 0.017
313.15 K, m1 = 0.5 | 1032.88 ± 0.33 | 1535.5 ± 1.6 | 0.605 ± 0.016
313.15 K, m1 = 0.6 | 1041.01 ± 0.35 | 1535.9 ± 1.6 | 0.602 ± 0.016
313.15 K, m1 = 0.7 | 1048.62 ± 0.36 | 1538.1 ± 1.6 | 0.595 ± 0.016

O=[N+]([O-])[O-].[K+] [potassium nitrate] + O
Conditions | mass density [kg/m3] | speed of sound [m/s] | viscosity [mPa·s]
293.15 K, m1 = 0.2 | 1010.62 ± 0.29 | 1490.7 ± 1.6 | 0.98 ± 0.025
293.15 K, m1 = 0.3 | 1016.69 ± 0.3 | 1493.5 ± 1.6 | 0.977 ± 0.025
293.15 K, m1 = 0.4 | 1022.68 ± 0.31 | 1497.4 ± 1.6 | 0.973 ± 0.024
293.15 K, m1 = 0.5 | 1028.6 ± 0.32 | 1501 ± 1.6 | 0.97 ± 0.024
293.15 K, m1 = 0.6 | 1034.61 ± 0.33 | 1504.4 ± 1.6 | 0.967 ± 0.024
293.15 K, m1 = 0.7 | 1040.37 ± 0.34 | 1507.6 ± 1.6 | 0.963 ± 0.024
298.15 K, m1 = 0.2 | 1009.41 ± 0.29 | 1504 ± 1.6 | 0.871 ± 0.022
298.15 K, m1 = 0.3 | 1015.47 ± 0.3 | 1507 ± 1.6 | 0.869 ± 0.022
298.15 K, m1 = 0.4 | 1021.25 ± 0.31 | 1510.1 ± 1.6 | 0.867 ± 0.022
298.15 K, m1 = 0.5 | 1027.13 ± 0.32 | 1513.4 ± 1.6 | 0.862 ± 0.022
298.15 K, m1 = 0.6 | 1032.84 ± 0.33 | 1517 ± 1.6 | 0.862 ± 0.022
298.15 K, m1 = 0.7 | 1038.56 ± 0.34 | 1520 ± 1.6 | 0.859 ± 0.022
303.15 K, m1 = 0.2 | 1007.8 ± 0.29 | 1515.6 ± 1.6 | 0.778 ± 0.02
303.15 K, m1 = 0.3 | 1013.82 ± 0.3 | 1518.7 ± 1.6 | 0.776 ± 0.02
303.15 K, m1 = 0.4 | 1019.62 ± 0.31 | 1522 ± 1.6 | 0.775 ± 0.02
303.15 K, m1 = 0.5 | 1025.4 ± 0.32 | 1524.7 ± 1.6 | 0.774 ± 0.02
303.15 K, m1 = 0.6 | 1031.2 ± 0.33 | 1528.4 ± 1.6 | 0.773 ± 0.02
303.15 K, m1 = 0.7 | 1036.79 ± 0.33 | 1530.9 ± 1.6 | 0.772 ± 0.02
308.15 K, m1 = 0.2 | 1006.09 ± 0.28 | 1526 ± 1.6 | 0.672 ± 0.018
308.15 K, m1 = 0.3 | 1011.97 ± 0.29 | 1528.8 ± 1.6 | 0.67 ± 0.018
308.15 K, m1 = 0.4 | 1017.79 ± 0.3 | 1531.4 ± 1.6 | 0.669 ± 0.018
308.15 K, m1 = 0.5 | 1023.58 ± 0.31 | 1534.3 ± 1.6 | 0.678 ± 0.018
308.15 K, m1 = 0.6 | 1029.21 ± 0.32 | 1536.8 ± 1.6 | 0.666 ± 0.018
308.15 K, m1 = 0.7 | 1034.87 ± 0.33 | 1539.4 ± 1.6 | 0.665 ± 0.018
313.15 K, m1 = 0.2 | 1004.28 ± 0.28 | 1534.6 ± 1.6 | 0.595 ± 0.016
313.15 K, m1 = 0.3 | 1009.98 ± 0.29 | 1537.5 ± 1.6 | 0.593 ± 0.016
313.15 K, m1 = 0.4 | 1015.89 ± 0.3 | 1539.7 ± 1.6 | 0.585 ± 0.016
313.15 K, m1 = 0.5 | 1021.56 ± 0.31 | 1542.5 ± 1.6 | 0.577 ± 0.016
313.15 K, m1 = 0.6 | 1027.23 ± 0.32 | 1544.8 ± 1.6 | 0.569 ± 0.016
313.15 K, m1 = 0.7 | 1032.76 ± 0.33 | 1547.7 ± 1.6 | 0.563 ± 0.016

Source: the NIST ThermoML archive (doi:10.1021/je1012789)
